Measured values as given in patent US20100278837A1, “Compositions And Methods For Reducing Cancer And Inflammation” (The Regents of the University of California, priority 2009, published 2010).

Experiments:
[1] = tested on: LLC tumours; assay: Subcutaneous LLC tumour growth, inflammation and angiogenesis in treated mice; assay type: in vivo, C57BL/6 mice; details: daily dosing
Procedure: LLC cells were obtained from the American Type Culture Collection (ATCC) and Panc02 pancreatic ductal carcinoma cells were obtained from the NCI DCTDC Tumour Repository. The abdominal cavities of immunocompetent C57Bl6 mice and integrin α4Y991A knockin mice^30 were opened and the tails of the pancreas were exteriorized. One million Panc02 cells were injected into the pancreatic tail, the pancreas was placed back into the abdominal cavity and the incision was closed. Tumours were excised after 30 days. 5×10^5 LLC cells were injected subcutaneously or by intravenous tail vein injection into C57Bl6 or integrin α4Y991A mice. Tumours were excised at 7, 14 or 21 days, cryopreserved in O.C.T., lysed for RNA purification or collagenase-digested for flow cytometric analysis of CD11b and Gr1 expression. […] Tumours were harvested, weighed and further analyzed on day 8. […]
PI3-kinase γ inhibitor studies: C57BL/6 mice were subcutaneously implanted on d1 with 5×10^5 LLC or by intradermal injection with 5×10^5 B16 melanoma cells. […] Tumour volumes, weights and blood vessel densities, as well as myeloid cell densities were measured. […] Tumours were excised, weighed and analyzed after 3 weeks. […] Mice were sacrificed at 9 weeks of age and tumours were analyzed.

[2] = tested on: CD11b+ myeloid cell adhesion to VCAM-1; assay: Chemoattractant-stimulated CD11b+ myeloid cell adhesion to VCAM-1 / endothelial cells (Example 9 adhesion assay); assay type: cell-based, mouse
Procedure: 1×10^5 calcein-AM labelled human CD11b+ cells isolated from buffy coats from the San Diego Blood Bank or murine CD11b+ cells isolated from naïve (non-tumour bearing) or tumour-bearing mice were incubated on HUVEC monolayers or on plastic plates coated with 5 μg/ml recombinant soluble VCAM-1 or ICAM-1 (R&D Systems) for 30 minutes at 37° C. with humidity in the presence of LLC Tumour Conditioned Medium (TCM) or DMEM containing 200 ng/ml SDF1α, IL1β, IL6, TNFα or VEGF-A (R&D Systems). (SDF-1α and IL-1β were initially titrated to determine the minimum dose required to achieve near maximal stimulation of adhesion). TCM was prepared by incubating LLC cells in serum-free media for 18 h and filtering through 0.22 μm filters. After washing three times with warmed medium, adherent cells were quantified using a plate fluorimeter (GeniosPro, TECAN).
In some adhesion assays, cells were also incubated in 25 μg/ml function-blocking anti-integrin α4β1 (rat anti-murine, PS2 or mouse anti-human, HP2/1, gifts from Biogen-Idec), rat-anti-αM (anti-CD11b, M1/70) and isotype control antibodies (rat IgG2κ or mouse IgG1) or with 0.1 nM-10 μM doses of the small molecule inhibitor of integrin α4, ELN476063 (IC50=10 nM), a gift from Elan^14.
Additionally, labelled cells were incubated with HUVEC and rsVCAM coated plates in the presence of […] or SDF-1α and 1-10 μM inhibitors: pan-PI3 kinase inhibitors ([…], wortmannin), PI3-kinase α inhibitors (PI3K75, PIK2alpha, PI103), PI3-kinase β inhibitor (TGX221), PI3-kinase γ inhibitors (TG100-115, AS605240, AS604850), inert control, PLC inhibitor (U73122), geranylgeranyltransferase (Rap1-selective) inhibitors (GGTI-2147 and GGTI-298) or farnesyltransferase (Ras-selective) inhibitor (FTI-277), Akt inhibitors (Inhibitor X and peptide 18), mTOR inhibitor (rapamycin), ROCK inhibitor (Y27632), MEK inhibitor (PD98059), p38 inhibitor (SB202190), tyrosine kinase inhibitor (genestein) and PKA inhibitors (H89, KT5720). LY294002, wortmannin, genestein, U73122, GGTI-2147, GGTI-298, FTI-277, Y27632, PD98059, SB202190, H89 and KT5720 were from Calbiochem. PIK2alpha, PI103, AS605240, AS604850 and TGX221 were from Echelon. TG100-115 was prepared as described^25-26. To titrate the effect of various signalling protein inhibitors on myeloid cell adhesion stimulated by IL-1β or SDF-1α, cells were incubated in 1 nm to 100 μM PI3-kinase inhibitors TG00020 (a pan-PI3-kinase inhibitor), PI3-kinase α inhibitor (PI3Kalpha2) PI3-kinase β inhibitor (TGX221), PI3-kinase γ inhibitors (TG100-115, AS605240), an inert chemically matched control, farnesyltrasnferase inhibitors and geranylgeranyltransferase inhibitors. IC50s for GGTI and FTI were 1 μM. […] Adherent GFP+ cells were automatically quantified using MetaMorph software (Molecular Devices Software).

[3] = tested on: CD11b+ myeloid cells; assay: Adoptive transfer: arrest of pretreated CD11b+ myeloid cells in LLC tumours; assay type: in vivo; details: adoptively transferred into LLC tumour-bearing mice
Procedure: Alternatively, 5×10^6 CFSE labelled CD11b+ cells from C57BL/6, α4Y991A, and PI3-kinase γ−/− mice were injected intravenously into mice bearing subcutaneous (5×10^5) d14 LLC tumours. In other studies, CD11b+ cells from WT mice were treated for 1 h with 1 μM PI3-kinase α inhibitor (PI3K75), PI3-kinase β inhibitor (TGX221), PI3-kinase γ inhibitor (TG100-115) and an inert control or with 10 μM PLC inhibitor (U73122), geranylgeranyltransferase inhibitor (GGT2147) or farnesyltransferase inhibitor (FTI-277) and then injected intravenously into mice bearing subcutaneous (5×10^5) d14 LLC tumours.
In other studies, K, N and H Ras, Rap1, PI3Kα, PI3Kβ, PI3Kγ, PI3Kδ, integrin α4 and integrin αM were knocked down by siRNA transfection of CD11b+ cells as described above. 48 h later, cells were labeled with CFSE and injected into mice with d14 LLC tumours (1×10^6 cells). Fluorescent cells accumulating in tumours and spleens were quantified 2 h and 24 h later by excising tissues, preparing single cell suspensions and performing FACs analysis at 488 nm. No differences were observed between untreated and non-silencing siRNA treated cells.

IC50 ([2]; stimulated by IL-1β or SDF-1α, read-out: IC50, myeloid cell adhesion)	Compound	LLC tumour growth [1]	adhesion, ligand binding and integrin conformational changes ([2]; chemokine-stimulated myeloid cells)	myeloid cell arrest in tumours in vivo [3]
	O=C1NC(=O)/C(=C\c2ccc3nccnc3c2)S1 [AS605240]	suppressed tumour growth at similar doses		
1000 nM	COC(=O)[C@H](CCSC)NC(=O)c1ccc(NC[C@@H](N)CS)cc1-c1ccccc1 [FTI]		blocked adhesion, ligand binding and integrin conformational changes	suppressed myeloid cell arrest in tumours in vivo
